Laboratory results from US20210261621A1, “Preparation of Dilipid Polymixins and Use Thereof as Antimicrobial Adjuvants” (priority 2018, published 2021).
In brackets after ≈: the same amount, converted by molar mass. Read-outs that look alike come from different tables or passages of the source. Positions of bridges follow the written chain, without caps; N, C: chain ends. Non-standard residues stand in square brackets, D forms with d. Residues, ends and D or L forms follow the SMILES beside them. *: point of attachment. Acetyl(1-adamantyl) = O=C(CC12CC3CC(CC(C3)C1)C2)*; Benzoyl(4-Ph) = O=C(c1ccc(-c2ccccc2)cc1)*; Lauroyl = CCCCCCCCCCCC(=O)*; Octanoyl = CCCCCCCC(=O)*; Dab = NCC[C@H](N)C(=O)O; Butyryl = CCCC(=O)*

What was measured:
[1] = tested on: MRSA ATCC 33592; type: cell-based, Staphylococcus aureus; conditions: for fold better MIC than colistin: methicillin-resistant Staphylococcus aureus
Source text: (§1) Bacterial strains were either obtained from the American Type Culture Collection (ATCC), Canadian National Intensive Care Unit (CAN-ICU) surveillance study or the Canadian Ward Surveillance (CANWARD) study. Strains from both CAN-ICU and CANWARD are isolates recovered from patients diagnosed with a presumed infectious disease that were admitted in a participating medical center across Canada. Efflux-deficient strain PAO200 (lacking MexAB-OprM efflux system) and PA0750 (lacking MexAB-OprM, MexCD-OprJ, MexEF-OprN, MexJK and MexXY efflux systems, and the outer membrane protein OpmH) were kindly gifted by Dr. Ayush Kumar (University of Manitoba).
(§2) The in vitro antibacterial activity of the compounds studied were assessed by broth microdilution susceptibility testing following CLSI guidelines. Bacterial cultures were grown overnight prior to the assay. The overnight grown cultures were diluted in saline to 0.5 McFarland turbidity, followed by 1:50 dilution in Mueller-Hinton broth (MHB) for inoculation to a final concentration of approximately 5×10^5 colony forming units/mL. Testing was performed on 96-well plates where the tested compounds were 2-fold serially diluted in MHB and incubated with equal volumes of bacterial inoculum at 37° C. for 18 h. […] Wells containing MHB with or without bacterial cells were used as positive or negative control, respectively.

[2] = tested on: S. aureus ATCC 29213; type: cell-based, Staphylococcus aureus
Source text: as §1, §2

[3] = tested on: E. faecalis ATCC 29212; type: cell-based
Source text: as §1, §2

[4] = tested on: E. faecium ATCC 27270; type: cell-based
Source text: as §1, §2

[5] = tested on: S. pneumoniae ATCC 49619; type: cell-based
Source text: as §1, §2

[6] = tested on: E. coli 107115; type: cell-based, Escherichia coli
Source text: as §1, §2

[7] = tested on: E. coli ATCC 25922; type: cell-based, Escherichia coli
Source text: as §1, §2

[8] = tested on: E. coli CAN-ICU 61714; type: cell-based, Escherichia coli
Source text: as §1, §2

[9] = tested on: E. coli CAN-ICU 63074; type: cell-based, Escherichia coli
Source text: as §1, §2

[10] = tested on: P. aeruginosa CANWARD-2011 96846; type: cell-based, Pseudomonas aeruginosa
Summary of the method: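 Overnight cultures were standardized to 0.5 McFarland, diluted 1:50 into Mueller-Hinton broth for a final inoculum near 5×10^5 CFU/mL, then mixed with two-fold serially diluted compound. Plates were incubated 18 h at 37° C. following CLSI guidelines.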

[11] = tested on: S. maltophilia CAN-ICU 62584; type: cell-based, Stenotrophomonas maltophilia
Source text: as §1, §2

[12] = tested on: E. cloacae 117029; type: cell-based, Enterobacter cloacae
Source text: as §1, §2

[13] = tested on: K. pneumoniae 113250; type: cell-based, Klebsiella pneumoniae
Procedure: (§3) We then addressed the possibility for the dilipid polymyxins to display enhanced antibacterial activity against colistin-resistant Gram-negative pathogens. […] The extended hydrophobic region of the dilipid polymyxin may provide additional hydrophobic interactions to the outer membrane of colistin-resistant organisms. Eight MDR colistin-resistant Gram-negative bacterial isolates were tested, including two E. coli isolates harboring the mcr-1 plasmid-encoded polymyxin resistance gene. We found no difference between the antibacterial activity of dilipid polymyxins and colistin against colistin-resistant Gram-negative bacteria (Table 3).
as §1, §2

[14] = tested on: K. pneumoniae 113254; type: cell-based, Klebsiella pneumoniae
Procedure: as §3, §1, §2

[15] = tested on: P. aeruginosa PAO200; conditions: for MIC: P. aeruginosa PAO200, efflux-deficient strain that lacks the MexAB-OprM pump; for difference in MIC among the three P. aeruginosa strains tested: PAO1, PAO200, PAO750
Source text: (§4) To our curiosity, we explored whether efflux can affect the activity of polymyxins. It is widely accepted that polymyxins disrupt Gram-negative bacterial membranes that result to intracellular component leakage and bacterial cell death. However, for this to occur requires the agent to reach the periplasmic space to interact and disrupt the inner membrane. Active efflux may potentially expel polymyxins out of the periplasm, effectively reducing its periplasmic and intracellular concentrations. To study the effect of efflux on polymyxins in Gram-negative pathogens, we used P. aeruginosa as they inherently overexpress efflux systems such as MexAB-OprM, MexCD-OprJ and MexXY-OprM. Moreover, antibiotic substrates for these efflux systems are mostly characterized. We evaluated and compared the activity of the dilipid polymyxins, colistin and PMBN against wild-type PAO1 and two efflux-deficient P. aeruginosa isogenic mutants (Table 5). The strain PAO200 lacks the MexAB-OprM efflux system while strain PAO750 lacks five clinically-relevant pumps (MexAB-OprM, MexCD-OprJ, MexEF-OprN, MexJK and MexXY) and outer membrane protein OpmH.
as §1, §2

[16] = tested on: P. aeruginosa PAO750; conditions: P. aeruginosa PAO750, efflux-deficient strain that lacks five pumps and OpmH
Source text: as §4, §1, §2

[17] = MRSA ATCC 33592 (methicillin-resistant Staphylococcus aureus)

| Molecule | MIC [1, 17] [µg/mL] | MIC ([2]; S. aureus ATCC 29213) [µg/mL] | MIC ([3]; E. faecalis ATCC 29212) [µg/mL] | MIC ([4]; E. faecium ATCC 27270) [µg/mL] | MIC ([5]; S. pneumoniae ATCC 49619) [µg/mL] | MIC [6]; 107115 [µg/mL] | MIC ([7]; E. coli ATCC 25922) [µg/mL] | MIC ([8]; E. coli CAN-ICU 61714) [µg/mL] | MIC ([9]; E. coli CAN-ICU 63074) [µg/mL] | MIC [10] [µg/mL] | MIC ([11]; S. maltophilia CAN-ICU 62584) [µg/mL] | MIC [12]; 117029 [µg/mL] | MIC [13]; 113250 [µg/mL] | MIC [14]; 113254 [µg/mL] | MIC [15] [µg/mL] | MIC [16] [µg/mL] | fold better MIC than colistin [1] [fold] | MIC ([3]; ATCC 29212) [µg/mL] | MIC ([6]; E. coli 107115) [µg/mL] | MIC ([12]; E. cloacae 117029) [µg/mL] | also measured |
| --- | --- | --- | --- | --- | --- | --- | --- | --- | --- | --- | --- | --- | --- | --- | --- | --- | --- | --- | --- | --- | --- |
| CCCC(=O)NCC[C@H](NC(=O)CCC)C(=O)N[C@H](C(=O)N[C@@H](CCN)C(=O)N[C@H]1CCNC(=O)[C@H]([C@@H](C)O)NC(=O)[C@H](CCN)NC(=O)[C@H](CCN)NC(=O)[C@H](CC(C)C)NC(=O)[C@@H](Cc2ccccc2)NC(=O)[C@H](CCN)NC1=O)[C@@H](C)O [Compound 1, Dibutyric Acid (Di-C4) Polymyxin] (Butyryl-[Dab](Butyryl)T[Dab][Dab][Dab][dF]L[Dab][Dab]T; lactam 4-C) | >128 | >128 | >128 | >128 | >128 | 128 (≈ 106 µM) | >128 | >128 | >128 | >128 | >128 | 64 (≈ 53.2 µM) | >64 | >64 | 4 (≈ 3.32 µM) | 8 (≈ 6.65 µM) | – | – | – | – | fold difference in MIC against wild-type PAO1 and efflux-deficient PAO200 ([15]; PAO1 versus PAO200 (lacks MexAB-OprM)): 32 fold |
| CCCCCCCC(=O)NCC[C@H](NC(=O)CCCCCCC)C(=O)N[C@H](C(=O)N[C@@H](CCN)C(=O)N[C@H]1CCNC(=O)[C@H]([C@@H](C)O)NC(=O)[C@H](CCN)NC(=O)[C@H](CCN)NC(=O)[C@H](CC(C)C)NC(=O)[C@@H](Cc2ccccc2)NC(=O)[C@H](CCN)NC1=O)[C@@H](C)O [Compound 2, Dioctanoic Acid (Di-C8) Polymyxin] (Octanoyl-[Dab](Octanoyl)T[Dab][Dab][Dab][dF]L[Dab][Dab]T; lactam 4-C) | – | – | – | – | – | 2 (≈ 1.52 µM) | – | – | – | 8 (≈ 6.08 µM) | – | 2 (≈ 1.52 µM) | >64 | >64 | 2 (≈ 1.52 µM) | 2 (≈ 1.52 µM) | 32 | 32 (≈ 24.3 µM) | – | – | MIC ([1]; ATCC 33592): 16 µg/mL (≈ 12.2 µM); MIC ([2]; ATCC 29213): 16 µg/mL (≈ 12.2 µM); MIC ([4]; ATCC 27270): 16 µg/mL (≈ 12.2 µM); MIC ([5]; ATCC 49619): 32 µg/mL (≈ 24.3 µM); MIC ([7]; ATCC 25922): 4 µg/mL (≈ 3.04 µM); MIC ([8]; CAN-ICU 61714): 32 µg/mL (≈ 24.3 µM); MIC ([9]; CAN-ICU 63074): 64 µg/mL (≈ 48.6 µM); MIC ([11]; CAN-ICU 62584): 32 µg/mL (≈ 24.3 µM); difference in MIC among the three P. aeruginosa strains tested [15]: no difference |
| CCCCCCCCCCCC(=O)NCC[C@H](NC(=O)CCCCCCCCCCC)C(=O)N[C@H](C(=O)N[C@@H](CCN)C(=O)N[C@H]1CCNC(=O)[C@H]([C@@H](C)O)NC(=O)[C@H](CCN)NC(=O)[C@H](CCN)NC(=O)[C@H](CC(C)C)NC(=O)[C@@H](Cc2ccccc2)NC(=O)[C@H](CCN)NC1=O)[C@@H](C)O [Compound 3, Didodecanoic Acid (Di-C12) Polymyxin] (Lauroyl-[Dab](Lauroyl)T[Dab][Dab][Dab][dF]L[Dab][Dab]T; lactam 4-C) | >128 | >128 | – | – | – | 8 (≈ 5.6 µM) | – | – | – | >128 | – | 16 (≈ 11.2 µM) | >64 | >64 | 32 (≈ 22.4 µM) | 32 (≈ 22.4 µM) | – | 64 (≈ 44.8 µM) | – | – | MIC ([4]; ATCC 27270): 8 µg/mL (≈ 5.6 µM); MIC ([5]; ATCC 49619): 64 µg/mL (≈ 44.8 µM); MIC ([7]; ATCC 25922): 16 µg/mL (≈ 11.2 µM); MIC ([8]; CAN-ICU 61714): 128 µg/mL (≈ 89.6 µM); MIC ([9]; CAN-ICU 63074): 64 µg/mL (≈ 44.8 µM); MIC ([11]; CAN-ICU 62584): 128 µg/mL (≈ 89.6 µM) |
| CC(C)C[C@@H]1NC(=O)[C@@H](Cc2ccccc2)NC(=O)[C@H](CCN)NC(=O)[C@@H](NC(=O)[C@H](CCN)NC(=O)[C@@H](NC(=O)[C@H](CCNC(=O)CC23CC4CC(CC(C4)C2)C3)NC(=O)CC23CC4CC(CC(C4)C2)C3)[C@@H](C)O)CCNC(=O)[C@H]([C@@H](C)O)NC(=O)[C@H](CCN)NC(=O)[C@H](CCN)NC1=O [Compound 4, Diadamantane Acetic Acid (Di-Adamantyl) Polymyxin] ({Acetyl(1-adamantyl)}-[Dab](Acetyl(1-adamantyl))T[Dab][Dab][Dab][dF]L[Dab][Dab]T; lactam 4-C) | 32 (≈ 22.6 µM) | 16 (≈ 11.3 µM) | 32 (≈ 22.6 µM) | 16 (≈ 11.3 µM) | 32 (≈ 22.6 µM) | – | 4 (≈ 2.83 µM) | 64 (≈ 45.2 µM) | 64 (≈ 45.2 µM) | 32 (≈ 22.6 µM) | 64 (≈ 45.2 µM) | – | >64 | >64 | 4 (≈ 2.83 µM) | 8 (≈ 5.65 µM) | – | – | 4 (≈ 2.83 µM) | 4 (≈ 2.83 µM) | – |
| CC(C)C[C@@H]1NC(=O)[C@@H](Cc2ccccc2)NC(=O)[C@H](CCN)NC(=O)[C@@H](NC(=O)[C@H](CCN)NC(=O)[C@@H](NC(=O)[C@H](CCNC(=O)c2ccc(-c3ccccc3)cc2)NC(=O)c2ccc(-c3ccccc3)cc2)[C@@H](C)O)CCNC(=O)[C@H]([C@@H](C)O)NC(=O)[C@H](CCN)NC(=O)[C@H](CCN)NC1=O [Compound 5, Dibiphenyl-4-Carboxylic Acid (Di-Biphenyl) Polymyxin] ({Benzoyl(4-Ph)}-[Dab](Benzoyl(4-Ph))T[Dab][Dab][Dab][dF]L[Dab][Dab]T; lactam 4-C) | 16 (≈ 11.2 µM) | 8 (≈ 5.62 µM) | 16 (≈ 11.2 µM) | 8 (≈ 5.62 µM) | 32 (≈ 22.5 µM) | – | 8 (≈ 5.62 µM) | 32 (≈ 22.5 µM) | 32 (≈ 22.5 µM) | 64 (≈ 45 µM) | 64 (≈ 45 µM) | – | >64 | >64 | 4 (≈ 2.81 µM) | 4 (≈ 2.81 µM) | 32 | – | 4 (≈ 2.81 µM) | 8 (≈ 5.62 µM) | – |
| colistin [reference compound] | 512 | 256 | 256 | 256 | 512 | – | 0.5 | 0.5 | ≤0.5 | – | 64 | – | – | – | 0.5 | 0.5 | – | – | 0.5 | 0.125 | MIC ([13]; K. pneumoniae 113250, colistin-resistant multidrug-resistant isolate): 256 µg/mL; MIC ([14]; K. pneumoniae 113254, colistin-resistant multidrug-resistant isolate): 256 µg/mL; difference in MIC among the three P. aeruginosa strains tested [15]: no difference |
